Series [1] concerns Human immunodeficiency virus 1. As to the kind of experiment: Antiviral activity against HIV1 expressing reverse transcriptase K103N mutant infected in human MT4 cells assessed as protection against virus-induced cytopathic effect after 5 days by MTT assay. The format is functional, cell-based. The conditions noted are these: Human immunodeficiency virus 1, MT4, 120 h. For orientation: Protection from cytopathic effect is a common read-out in antiviral testing.

The subject of series [2] is Human immunodeficiency virus 1. The format is functional, cell-based. The settings on record: Human immunodeficiency virus 1, MT4, 120 h.
Series [3] has as its system Human immunodeficiency virus 1. The format is functional, cell-based. The conditions noted are these: Human immunodeficiency virus 1, MT4, 120 h. The source holds these as a separate data set.
Series [4] deals with Human immunodeficiency virus 1. The experiment in a line: Antiviral activity against HIV1 expressing reverse transcriptase E138K mutant infected in human MT4 cells assessed as protection against virus-induced cytopathic effect after 5 days by MTT assay. The conditions noted are these: Human immunodeficiency virus 1, MT4, 120 h. The format is functional, cell-based.
For series [5], the system named is Human immunodeficiency virus 1. The format is functional, cell-based. The settings on record: Human immunodeficiency virus 1, MT4, 120 h. This is another data set of the same source.
Series [6] deals with Human immunodeficiency virus 1. The experiment in a line: Antiviral activity against HIV1 RES056 expressing reverse transcriptase mutant infected in human MT4 cells assessed as protection against virus-induced cytopathic effect after 5 days by MTT assay. The format is functional, cell-based. The settings on record: Human immunodeficiency virus 1, RES056, MT4, 120 h.
Series [7] in a line: Cytotoxicity against human MT4 cells assessed as decrease in cell viability after 5 days by MTT assay. The format is cell-based. (Tetrazolium dyes change colour on reduction, which living cells bring about.)
Series [8] is described as follows: Inhibition of recombinant wild type HIV1 reverse transcriptase using poly (A).oligo (dT)15 as template/primer assessed as decrease in biotin-dUTP incorporation after 1 hr by ELISA. Also noted: species or system Human immunodeficiency virus 1. In general terms: An ELISA detects its analyte on a solid surface through an enzyme-linked reagent.
Series [9] can be described thus: in vitro. The settings on record: human, MT4 cells.
Description: Selectivity index, ratio of CC50 for human MT4 cells to EC50 for HIV1 3B expressing wild type reverse transcriptase
Series [10] can be described thus: in vitro. The conditions noted are these: human, MT4 cells. This is another data set of the same source.
Description: Selectivity index, ratio of CC50 for human MT4 cells to EC50 for HIV1 expressing reverse transcriptase L100I mutant
Series [11] is described as follows: in vitro. The settings on record: human, MT4 cells. The source holds these as a separate data set.
Description: Selectivity index, ratio of CC50 for human MT4 cells to EC50 for HIV1 expressing reverse transcriptase K103N mutant
Series [12] in a line: in vitro. The settings on record: human, MT4 cells. The source holds these as a separate data set.
Description: Selectivity index, ratio of CC50 for human MT4 cells to EC50 for HIV1 expressing reverse transcriptase Y181C mutant
Series [13] is described as follows: in vitro. The conditions noted are these: human, MT4 cells. This is another data set of the same source.
Description: Selectivity index, ratio of CC50 for human MT4 cells to EC50 for HIV1 expressing reverse transcriptase Y188L mutant
Series [14] is described as follows: in vitro. The settings on record: human, MT4 cells. This is another data set of the same source.
Description: Selectivity index, ratio of CC50 for human MT4 cells to EC50 for HIV1 expressing reverse transcriptase E138K mutant
Series [15] is described as follows: in vitro. The conditions noted are these: human, MT4 cells. The source holds these as a separate data set.
Description: Selectivity index, ratio of CC50 for human MT4 cells to EC50 for HIV1 expressing reverse transcriptase F227L/V106A double mutant
Series [16] deals with Human immunodeficiency virus 1. As to the kind of experiment: microbe, parasite or virus in culture. The conditions noted are these: Human immunodeficiency virus 1, 3B, MT4, 120 h.
Description: Antiviral activity against HIV1 3B expressing wild type reverse transcriptase infected in human MT4 cells assessed as protection against virus-induced cytopathic effect after 5 days by MTT assay
Series [17] concerns Human immunodeficiency virus 1. The experiment in a line: microbe, parasite or virus in culture. The settings on record: Human immunodeficiency virus 1, MT4, 120 h.
Description: Antiviral activity against HIV1 expressing reverse transcriptase L100I mutant infected in human MT4 cells assessed as protection against virus-induced cytopathic effect after 5 days by MTT assay
For series [18], the system named is Human immunodeficiency virus 1. As to the kind of experiment: Potency index, ratio of nevirapine EC50 to test compound EC50 for HIV1 3B expressing wild type reverse transcriptase. The format is functional.
Series [19] concerns Human immunodeficiency virus 1. The experiment in a line: Potency index, ratio of delavirdine EC50 to test compound EC50 for HIV1 3B expressing wild type reverse transcriptase. It is filed as functional.
Series [20] deals with Human immunodeficiency virus 2. As to the kind of experiment: Antiviral activity against HIV2 ROD infected in human MT4 cells assessed as protection against virus-induced cytopathic effect after 5 days by MTT assay. It is filed as functional, cell-based. The settings on record: ISOLATE ROD.
Series [21] relates to Human immunodeficiency virus 1. As to the kind of experiment: Resistance ratio of EC50 for HIV1 expressing reverse transcriptase L100I mutant to EC50 for HIV1 3B expressing wild type reverse transcriptase. The format is functional.
For series [22], the system named is Human immunodeficiency virus 1. The experiment in a line: Resistance ratio of EC50 for HIV1 expressing reverse transcriptase K103N mutant to EC50 for HIV1 3B expressing wild type reverse transcriptase. It is filed as functional.
The nature of series [23]: in vitro. The settings on record: human, MT4 cells. This is another data set of the same source.
Description: Selectivity index, ratio of CC50 for human MT4 cells to EC50 for HIV1 RES056 expressing reverse transcriptase mutant

The structures appear in SMILES notation. Calls of active or inactive are those of the source. No cut-off for these calls is given here.

Seven compounds from ChEMBL document CHEMBL4002552, “Discovery of novel piperidine-substituted indolylarylsulfones as potent HIV NNRTIs via structure-guided scaffold morphing and fragment rearrangement” (Eur J Med Chem, 2017) can be followed below.

The EC50 is the concentration that produces a half-maximal response. As usually defined, the CC50 is the concentration giving 50% cytotoxicity. In general, IC50 refers to the midpoint of a concentration-inhibition curve. Take `Cc1ccnc2c1NC(=O)c1cccnc1N2C1CC1` [NEVIRAPINE]: the EC50 in series [1] came out at 3600 nM; in series [2] it was 3800 nM; in series [3] it was 4400 nM; in series [4], 160 nM; in series [5], 3500 nM; in [6], 2200 nM. For the same compound, the CC50 at 120 h in series [7] was over 15000 nM. Besides, the IC50 in series [8] was determined as 2800 nM.

Consider `CC(C)Nc1cccnc1N1CCN(C(=O)c2cc3cc(NS(C)(=O)=O)ccc3[nH]2)CC1` [DELAVIRDINE], for which the concentration for a half-maximal effect (EC50) in series [1] is 2500 nM; in series [2], 1900 nM; in series [3], 550 nM; in series [4], 70 nM; in [5], 2600 nM; in [6] it was at least 37000 nM. Further, the EC50 in series [16] worked out at 24 nM; in series [17], 3500 nM. Also, the CC50 at 120 h in [7] was over 43800 nM. The selectivity ratio turned out to be 1880 in “in vitro [9]”; 13 in “in vitro [10]”; 18 in the series “in vitro [11]”; 23 in “in vitro [12]”; 81 in “in vitro [13]”; 634 in “in vitro [14]”. Also, the selectivity ratio in “in vitro [15]” turned out to be 17.

As to `O=C1Nc2ccc(Cl)cc2[C@@](C#CC2CC2)(C(F)(F)F)O1` [EFAVIRENZ], the EC50 was 98 nM in series [1]; 5 nM in series [2]; 92 nM in series [3]; 76 nM in [5]; 110 nM in series [6]. Also, in series [7], the CC50 at 120 h was over 6300 nM.

Take `Cc1cc(C#N)cc(C)c1Oc1nc(Nc2ccc(C#N)cc2)nc(N)c1Br` [ETRAVIRINE]: the EC50 turned out to be 14 nM in series [2]; 15 nM in series [3]; 11 nM in series [4]; 34 nM in [6]; 9 nM in series [17]. In series [8], the IC50 came to 1100 nM.

Take `Cc1cc(C)cc(S(=O)(=O)c2c(C(=O)NC3CCN(CCO)CC3)[nH]c3ccc(Br)cc23)c1`: the EC50 was 84 nM in [1]; 130 nM in series [2]; over 6300 nM in series [3]; 140 nM in series [4]; 220 nM in series [5]; over 6300 nM in [6]. In addition, the EC50 in series [16] was found to be 6 nM; in series [17], 17 nM. Also, in series [7], the CC50 at 120 h came to 6300 nM. Further, the “Ratio EC50” value in [18] is listed as 20; in series [19], 4; in series [21] it was 2.8; in [22], 14. Further, the outcome in [20] was inactive. For the same compound, the selectivity ratio is 1000 in the series “in vitro [9]”; 368 in the series “in vitro [10]”; 74 in the series “in vitro [11]”; 48 in “in vitro [12]”; under 1 in the series “in vitro [13]”; 46 in “in vitro [14]”. In addition, the selectivity ratio in “in vitro [15]” was 28; in the series “in vitro [23]” it was under 1.

In the case of `CCOC(=O)CCN1CCC(CNC(=O)c2[nH]c3ccc(Cl)cc3c2S(=O)(=O)c2cc(C)cc(C)c2)CC1`, the CC50 at 120 h in series [7] was 19200 nM. Also, the IC50 in series [8] amounted to 10100 nM.

On to `Cc1cc(C)cc(S(=O)(=O)c2c(C(=O)NCC3CCN(CCO)CC3)[nH]c3ccc(Cl)cc23)c1`, for which the EC50 in series [1] is 320 nM; in series [2], 560 nM; in series [3], over 6700 nM; in series [4], 300 nM; in [5] it was 620 nM; in series [6], over 6700 nM. Also, the EC50 in [16] amounted to 32 nM; in [17], 110 nM. The CC50 at 120 h in series [7] amounted to 6700 nM. In addition, the result in [20] was inactive. Besides, the selectivity ratio in “in vitro [9]” was 205; in the series “in vitro [10]”, 59; in the series “in vitro [11]”, 21; in “in vitro [12]”, 12; in the series “in vitro [13]” it was under 1; in the series “in vitro [14]” it was 22. Also, the selectivity ratio in “in vitro [15]” is 11; in “in vitro [23]” it was under 1.
